Where two headings read alike, the source gives them in different places.
Key:
[1] = molecular target: Mitochondrial respiratory complex II (Mus musculus, UniProt Q8K2B3+Q9CQA3+Q9CXV1+Q9CZB0); experiment: Complex II inhibition assay; type: biochemical; conditions: for inhibition at 100 µM: read-out: % Inhibition CII (100 μM), 100 μM; for inhibition at 100 µM / % Inhibition CII (100 μM): mouse liver mitochondria, mean ±SD of n = 4
TNBC MDA-MB-468 cells = experiment: MTS cytotoxicity assay in MDA-MB-468 cells; type: cell-based; conditions: for SI (Selectivity Index): MDA-MB-468 over HEK293 cells; for IC50: read-out: MDA-MB-468 IC50, 72 hours, mean ±SD of n=3
[2] = system: low tumorigenic human endothelial kidney (HEK293) cells; experiment: MTS cytotoxicity assay in HEK293 cells; type: cell-based; conditions: read-out: HEK293 IC50
[3] = system: 22Rv1 prostate cancer cells; experiment: MTS cytotoxicity assay in 22Rv1 prostate cancer cells; type: cell-based; conditions: for reduction of 22Rv1 cell viability: 100 μM, 48 hr treatment, MTS

Chain of Mitochondrial respiratory complex II (Q8K2B3 43-664): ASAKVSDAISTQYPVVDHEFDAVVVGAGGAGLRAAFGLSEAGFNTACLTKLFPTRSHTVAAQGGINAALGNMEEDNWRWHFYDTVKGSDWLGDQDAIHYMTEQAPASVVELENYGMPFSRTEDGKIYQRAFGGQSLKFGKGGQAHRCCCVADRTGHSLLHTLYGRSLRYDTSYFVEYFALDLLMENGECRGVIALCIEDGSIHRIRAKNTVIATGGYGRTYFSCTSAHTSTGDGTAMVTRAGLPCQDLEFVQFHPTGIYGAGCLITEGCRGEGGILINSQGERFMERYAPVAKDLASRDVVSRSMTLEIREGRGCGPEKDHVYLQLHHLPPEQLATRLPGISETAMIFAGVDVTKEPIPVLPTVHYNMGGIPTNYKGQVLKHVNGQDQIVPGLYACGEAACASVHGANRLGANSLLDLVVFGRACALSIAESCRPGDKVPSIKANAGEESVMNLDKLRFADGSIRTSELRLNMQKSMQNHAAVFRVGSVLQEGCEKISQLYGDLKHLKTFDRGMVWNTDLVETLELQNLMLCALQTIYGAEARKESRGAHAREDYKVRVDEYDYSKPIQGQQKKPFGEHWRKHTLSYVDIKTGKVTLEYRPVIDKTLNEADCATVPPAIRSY
Chain of Mitochondrial respiratory complex II (Q9CQA3 31-282): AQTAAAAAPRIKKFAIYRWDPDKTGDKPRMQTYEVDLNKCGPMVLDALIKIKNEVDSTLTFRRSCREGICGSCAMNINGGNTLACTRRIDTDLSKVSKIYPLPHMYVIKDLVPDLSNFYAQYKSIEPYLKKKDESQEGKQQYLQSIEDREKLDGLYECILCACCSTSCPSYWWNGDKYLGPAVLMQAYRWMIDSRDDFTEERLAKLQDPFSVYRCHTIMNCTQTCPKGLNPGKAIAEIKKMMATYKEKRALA
Chain of Mitochondrial respiratory complex II (Q9CZB0 30-169): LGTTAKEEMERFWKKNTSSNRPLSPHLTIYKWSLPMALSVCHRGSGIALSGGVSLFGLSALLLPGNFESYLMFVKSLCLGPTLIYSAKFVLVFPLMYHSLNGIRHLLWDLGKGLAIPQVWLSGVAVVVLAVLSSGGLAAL
Chain of Mitochondrial respiratory complex II (Q9CXV1 57-159): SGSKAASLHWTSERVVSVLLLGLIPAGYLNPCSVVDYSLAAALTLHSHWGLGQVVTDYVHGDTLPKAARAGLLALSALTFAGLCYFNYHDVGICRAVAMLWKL

Row | inhibition at 100 µM [1] | Structure (SMILES) | SI (Selectivity Index) (TNBC MDA-MB-468 cells) | IC50 ([2]; Homo sapiens, HEK293, 72 h) | reduction of 22Rv1 cell viability [3] | further results
1 | 37 ± 4.7% | O=S1(=O)N=C(NCCc2ccccc2)Nc2ccc(Br)cc21 [Compound 18c, 7-Bromo-3-(phenethylamino)-4H-benzo[e][1,2,4]thiadiazine 1,1-dioxide] | 3.4 | 63.1 ± 1.8 µM |  | 
2 | 25 ± 19% | O=S1(=O)N=C(NCCc2c[nH]c3ccccc23)Nc2cc(Cl)ccc21 [Compound 36b, 3-((2-(1H-indol-3-yl)ethyl)amino)-6-chloro-4H-benzo[e][1,2,4]thiadiazine 1,1-dioxide] | 2.66 | 41.3 ± 5.2 µM |  | 
3 | 81 ± 6.9% | O=S1(=O)NC(=S)Nc2cc(Cl)ccc21 [Compound 12b, 6-Chloro-3-thioxo-3,4-dihydro-2H-1,2,4-benzothiadiazine 1,1-dioxide] |  |  | 12% | IC50 [1]: 11.9 ± 3.3 µM
4 | 22 ± 9.9% | CC(NC1=NS(=O)(=O)c2cc(F)ccc2N1)c1ccccc1 (stereo not shown) [Compound 24a, 7-Fluoro-3-((1-phenylethyl)amino)-4H-benzo[e][1,2,4]thiadiazine 1,1-dioxide] | 10.2 | 42.6 ± 5.9 µM | 34% | 
5 | 55 ± 8.2% | CC(NC1=NS(=O)(=O)c2cc(Br)ccc2N1)c1ccccc1 (stereo not shown) [Compound 24c, 7-Bromo-3-((1-phenylethyl)amino)-4H-benzo[e][1,2,4]thiadiazine 1,1-dioxide] | 11 | 32.2 ± 1.5 µM | 70% | IC50 [1]: 79.8 ± 4.1 µM; IC50 ([3]; Homo sapiens, 22Rv1, read-out: 22Rv1 IC50): 38.9 ± 3.2 µM
6 | 45 ± 17.1% | O=S1(=O)N=C(NCCc2ccc(F)cc2)Nc2ccc(Br)cc21 [Compound 33c, 7-Bromo-3-((4-fluorophenethyl)amino)-4H-benzo[e][1,2,4]thiadiazine 1,1-dioxide] | 2.42 | 48.7 ± 12 µM |  | 
7 | 18 ± 6.2% | COc1ccc(CCNC2=NS(=O)(=O)c3cc(F)ccc3N2)cc1 [Compound 39a, 7-Fluoro-3-((4-methoxyphenethyl)amino)-4H-benzo[e][1,2,4]thiadiazine 1,1-dioxide] | 3.27 | 123 ± 21.4 µM |  | 
8 | 0% | CC(NC1=NS(=O)(=O)c2ccccc2N1)c1ccccc1 (stereo not shown) [Compound 24d, 3-((1-Phenylethyl)amino)-4H-benzo[e][1,2,4]thiadiazine 1,1-dioxide] | 3.92 | 48.6 ± 1.7 µM | approximately 30% | 
9 |  | O=S1(=O)N=C(NCc2ccc(Cl)cc2)Nc2ccc(Br)cc21 [Compound 16c, 7-Bromo-3-((4-chlorobenzyl)amino)-4H-benzo[e][1,2,4]thiadiazine 1,1-dioxide dioxide] |  |  |  | % Inhibition CII (100 μM) [1]: 45 ±5.6%; IC50 (TNBC MDA-MB-468 cells): 12.5 ± 0.3 µM; IC50 ([2]; 72 hours, mean ±SD of n=3): 43.1 ± 3.2 µM
10 | 38 ± 7.8% | C=CCNC1=NS(=O)(=O)c2cc(F)ccc2N1 [Compound 32a, 3-(Allylamino)-7-fluoro-4H-benzo[e][1,2,4]thiadiazine 1,1-dioxide] |  |  | 24% | 
11 | 44 ± 12.3% | COc1ccccc1CNC1=NS(=O)(=O)c2cc(Br)ccc2N1 [Compound 26c, 7-Bromo-3-((2-methoxybenzyl)amino)-4H-benzo[e][1,2,4]thiadiazine 1,1-dioxide] | 4 | 54.4 ± 4.2 µM |  | 
12 | 27 ± 5.6% | COc1ccccc1CNC1=NS(=O)(=O)c2cc(F)ccc2N1 [Compound 26a, 7-Fluoro-3-((2-methoxybenzyl)amino)-4H-benzo[e][1,2,4]thiadiazine 1,1-dioxide] | 3.03 | 47.6 ± 2 µM |  | 
13 |  | O=S1(=O)N=C(NC2CCCC2)Nc2cc(Cl)ccc21 [Compound 22b, 6-Chloro-3-(cyclopentylamino)-4H-benzo[e][1,2,4]thiadiazine 1,1-dioxide] |  |  | 34% | 
14 |  | O=S1(=O)N=C(NCc2ccc(C(F)(F)F)cc2)Nc2cc(Cl)ccc21 [Compound 25b, 6-Chloro-3-((4-(trifluoromethyl)benzyl)amino)-4Hbenzo[e][1,2,4]thia-d iazine 1,1-dioxide] |  |  |  | % Inhibition CII (100 μM) [1]: 19 ±10.1%; IC50 (TNBC MDA-MB-468 cells): 25.1 ± 3.8 µM
15 |  | O=S1(=O)N=C(NCc2ccc(C(F)(F)F)cc2)Nc2ccc(Br)cc21 [Compound 25c, 7-Bromo-3-((4-(trifluoromethyl)benzyl)amino)-4H-benzo[e][1,2,4]thiadiazine 1,1-dioxide] |  | 57.5 ± 4.7 µM | 34% | 
16 | 19 ± 10.4% | CC(C)C(C)NC1=NS(=O)(=O)c2cc(Br)ccc2N1 (stereo not shown) [Compound 15c, 7-Bromo-3-((3-methylbutan-2-yl)amino)-4Hbenzo[e][1,2,4]thiadiazine 1,1-dioxide] | 1.75 | 35.7 ± 1.6 µM |  | 
17 | 14 ± 10.4% | O=S1(=O)N=C(NCCCc2ccccc2)Nc2ccc(F)cc21 [Compound 23a, 7-Fluoro-3-((3-phenylpropyl)amino)-4H-benzo[e][1,2,4]thiadiazine 1,1-dioxide] | 3.12 | 181 ± 7.3 µM |  | 
18 | 7 ± 6.2% | O=S1(=O)N=C(NCc2ccc(OC(F)(F)F)cc2)Nc2ccccc21 [Compound 30d, 3-((4-(Trifluoromethoxy)benzyl)amino)-4H-benzo[e][1,2,4]thiadiazine 1,1-dioxide] |  |  | approximately 30% | 
19 |  | O=S1(=O)N=C(NCc2ccc(Cl)cc2)Nc2cc(Cl)ccc21 [Compound 16b, 6-Chloro-3-((4-chlorobenzyl)amino)-4H-benzo[e][1,2,4]thiadiazine 1,1-dioxide] |  |  | 10% | 
20 | 19 ± 22.6% | O=S1(=O)N=C(NCCc2ccccc2)Nc2cc(Cl)ccc21 [Compound 18b, 6-Chloro-3-(phenethylamino)-4H-benzo[e][1,2,4]thiadiazine 1,1-dioxide] |  |  |  | 
21 | 0% | O=S1(=O)N=C(NCc2ccc(F)cc2)Nc2cc(Cl)ccc21 [Compound 17b, 6-Chloro-3-((4-fluorobenzyl)amino)-4H-benzo[e][1,2,4]thiadiazine 1,1-dioxide] |  |  |  | 
22 | 5 ± 4.5% | CC(C)C(C)NC1=NS(=O)(=O)c2cc(F)ccc2N1 (stereo not shown) [Compound 15a, 7-Fluoro-3-((3-methylbutan-2-yl)amino)-4H-benzo[e][1,2,4]thiadiazine 1,1-dioxide] |  |  |  | 
23 | 55 ± 15.2% | O=S1(=O)NC(=S)Nc2ccc(Br)cc21 [Compound 12c, 7-Bromo-3-thioxo-3,4-dihydro-2H-1,2,4-benzothiadiazine 1,1-dioxide] |  |  | 16% | IC50 [1]: 37 ± 2.4 µM
24 | 0% | CC(C)C(C)NC1=NS(=O)(=O)c2ccc(Cl)cc2N1 (stereo not shown) [Compound 15b, 6-Chloro-3-((3-methylbutan-2-yl)amino)-4H-benzo[e][1,2,4]thiadiazine 1,1-dioxide] |  |  |  | 
25 | 17 ± 8.2% | O=S1(=O)N=C(NCCc2c[nH]c3ccccc23)Nc2ccc(F)cc21 [Compound 36a, 3-((2-(1H-indol-3-yl)ethyl)amino)-7-fluoro-4H-benzo[e][1,2,4]thiadiazine 1,1-dioxide] |  |  | 30% | 
26 |  | O=c1[nH]cc(F)c(=O)[nH]1 [5-Fluorouracil, reference compound] | 1.03 | 7.06 ± 0.8 µM |  | SI (Selectivity Index) (TNBC MDA-MB-468 cells; listed as 5-fluorouracil): 1
27 | 34 ± 18.4% | O=S1(=O)N=C(NCCc2ccc(Cl)cc2)Nc2ccc(F)cc21 [Compound 37a, 3-((4-Chlorophenethyl)amino)-7-fluoro-4H-benzo[e][1,2,4]thiadiazine 1,1-dioxide] |  |  |  | 
